Laboratory results: US20090247520A1, “INHIBITORS OF ANTIGEN RECEPTOR-INDUCED NF-kappa B ACTIVATION” (The Burnham Institute for Medical Research, priority 2008, published 2009)

Tests used:
[1] = system: NOD2 (NLRC2) induced NF-κB-luciferase reporter gene activity; assay: NF-κB reporter in HEK293-NF-κB-luc cells over-expressing NOD2; format: cell-based; conditions: CID-2858522 4 μM, IKK inhibitor 10 μM
Experimental: (§1) FIGS. 3 (A-F) HEK293-NF-κB-luc cells were pretreated with CID-2858522 (4 μM), IKK inhibitor, BMS-335541 (10 μM), or PKC inhibitor, Bisindolylmaleimide I (1 μM) for 2 hrs and then transfected with plasmids encoding CD4/TLR4 (A), CD40 (B), NOD1 (C), NOD2 (D), cIAP2-MALT1 (E), or XIAP and TAB (F), or pcDNA as control (compounds were not removed). After 48 hrs, luciferase activity was measured expressing data as fold increase relative to unstimulated cells (mean±SD; n=3). (G-H) HEK293-NF-κB-luc cells were pretreated with CID-2858522 (4 μM), or IKK inhibitor, BMS-335541 (10 μM) for 2 hrs and then cultured with 2 μM doxorubicin (G) or 16 μM retinoic acid (H). After 48 hrs, luciferase activity was measured as above.
(§2) Counter Screening and Secondary Assays. To counter-screen for inhibitors of the TNF pathway, HEK293-NFκB-Luc cells were seeded at 10^5 cells per well in 90 μL medium in white 96-well plates (Greiner Bio-One) and cultured overnight, before adding compounds (5 μL in medium) to cells. […] Luciferase activity was measured using Britelite kit (Perkin Elmer). […] Cells were cultured in medium containing CID-2858522 or other compounds and luciferase activity was measured 48 h later. […] Reactions were then initiated by addition of 50 μL 160 nM ATP (Sigma) in PBS and luciferase activity was measured 2 h later using a luminometer (LJL Biosystems, Sunnyvale, Calif.).

[2] = system: doxorubicin-induced NF-κB activity; assay: NF-κB reporter in HEK293-NF-κB-luc cells stimulated with doxorubicin; format: cell-based; conditions: 2 μM doxorubicin; CID-2858522 4 μM, IKK inhibitor 10 μM
Experimental: as §1, §2

TRAF1 induction = assay: TRAF1 expression in anti-IgM-stimulated CLL B-cells (immunoblot); format: cell-based, human; conditions: 24 hr after stimulation
Experimental: (A) Isolated mouse primary splenocytes were cultured with anti-CD3/anti-CD28 (0.3 μg/mL each) or anti-IgM (3 μg/mL) for 48 h, then 1 μCi 3H-Thymidine was added for 12 h and incorporation into DNA was measured, expressing data as fold increase above unstimulated cells (mean±SD; n=3). (B-D) Primary splenocytes were pretreated for 2 h with IKK inhibitor, BMS-335541 (B), PKC inhibitor, Bisindolylmaleimide I (C) or CID-2858522 (D), then stimulated with anti-CD3/anti-CD28 (0.3 μg/mL) or anti-IgM (3 μg/mL) for 48 h. 1 μCi 3H-Thymidine was added for 12 h and incorporation into DNA was measured, expressing data as percent inhibition relative to control cells treated with DMSO (mean±SD; n=3). […] Levels of TRAF1 and β-actin were assessed by immunoblotting, quantified by densitometry and TRAF1 results reported relative to control cells, after normalization for β-actin (mean±SD). […] Then nuclear extracts were prepared and p65-DNA-binding activity was measured (mean±SD; n=3).
Chronic Lymphocytic Leukemia (CLL) cell culture. Peripheral blood mononuclear cells from CLL patients were obtained under IRB approval from whole blood by Ficoll density gradient centrifugation and cultured with RPMI 1640 Medium supplemented with 10% FBS and antibiotics.

CLL B-cells = assay: Cytotoxicity in CLL B-cells by ATP levels; format: cell-based, human; conditions: time-frame analyzed
JAK2 = target: T1, JAK2 (Homo sapiens, UniProt O60674); assay: KINOMEscan competition binding assay, JAK2
T1 construct: proprietary tag (Ambit); purchased Ambit, Inc
T1 sequence (O60674 whole entry): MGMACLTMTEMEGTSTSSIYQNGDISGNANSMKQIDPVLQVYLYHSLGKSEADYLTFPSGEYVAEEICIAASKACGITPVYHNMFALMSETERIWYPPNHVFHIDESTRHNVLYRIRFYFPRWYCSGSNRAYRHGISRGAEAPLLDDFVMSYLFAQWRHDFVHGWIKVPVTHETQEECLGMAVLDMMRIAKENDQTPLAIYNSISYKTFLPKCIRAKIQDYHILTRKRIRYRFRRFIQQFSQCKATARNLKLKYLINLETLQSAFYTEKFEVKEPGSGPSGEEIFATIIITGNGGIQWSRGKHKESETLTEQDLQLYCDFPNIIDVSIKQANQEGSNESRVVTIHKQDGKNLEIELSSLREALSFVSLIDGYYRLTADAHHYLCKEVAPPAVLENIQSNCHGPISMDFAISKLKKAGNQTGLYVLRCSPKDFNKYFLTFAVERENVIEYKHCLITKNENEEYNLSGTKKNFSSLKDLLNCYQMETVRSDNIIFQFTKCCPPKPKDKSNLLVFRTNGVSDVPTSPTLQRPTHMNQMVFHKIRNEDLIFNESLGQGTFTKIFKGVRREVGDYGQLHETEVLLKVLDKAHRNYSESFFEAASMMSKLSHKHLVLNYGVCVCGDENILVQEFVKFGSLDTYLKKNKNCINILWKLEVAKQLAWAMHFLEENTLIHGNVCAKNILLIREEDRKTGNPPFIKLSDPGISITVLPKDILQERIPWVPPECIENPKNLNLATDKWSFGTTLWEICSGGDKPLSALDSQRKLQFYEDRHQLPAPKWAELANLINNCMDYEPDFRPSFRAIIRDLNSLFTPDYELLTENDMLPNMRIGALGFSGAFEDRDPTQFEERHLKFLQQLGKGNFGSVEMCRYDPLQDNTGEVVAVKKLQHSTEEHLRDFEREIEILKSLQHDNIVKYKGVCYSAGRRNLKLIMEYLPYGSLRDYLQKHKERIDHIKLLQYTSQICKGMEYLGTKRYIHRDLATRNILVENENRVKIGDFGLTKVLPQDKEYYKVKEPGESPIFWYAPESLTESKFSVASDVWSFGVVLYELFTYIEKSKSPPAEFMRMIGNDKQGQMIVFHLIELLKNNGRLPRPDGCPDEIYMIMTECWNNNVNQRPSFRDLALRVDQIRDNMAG
Excerpt: CID-2858522 is not a potent protein kinase inhibitor. Protein kinases play critical roles in NF-κB activation. PKCs are proximal kinases in the NF-κB pathways activated by PMA/Ionomycin and by T- and B-cell antigen receptors, while the IKKs are distal kinases operating in the terminal segments of these and other NF-κB activation pathways. We therefore tested whether CID-2858522 inhibits members of these kinase families by in vitro kinase assays. For these experiments, we tested PKC-beta and PKC-theta (the PKC family members implicated in TCR/BCR signaling), and IKK-beta (a component of the IKK complex) (FIG. 6). […] In addition to assessing these three kinases by conventional in vitro kinase assays, a kinome screen was performed using a high throughput screening method, KINOMEscan™, which is an active-site dependent competition binding assay in which human kinases of interest are fused to a proprietary tag (Ambit). The amount of kinase bound to an immobilized, active-site directed ligand is measured in the presence and absence of the test compound. […] Thus, CID-2858522 inhibits none of the protein kinases previously implicated in regulating NF-κB.
In Vitro Kinase Assays. PKC-beta, PKC-theta and IKK-beta in vitro kinase assays were performed using the HTScan Kinase Assay Kit (Cell Signaling, Danvers, Mass.) according to manufacturer's protocols. […]

SMILES | inhibition of NOD2-induced NF-κB reporter [1] | suppression of doxorubicin-induced NF-κB activity [2] | inhibition of anti-IgM-stimulated TRAF1 expression (TRAF1 induction) | cytotoxicity in CLL B-cells (CLL B-cells) | inhibition at 10 µM (JAK2) [%]
Cc1ccc2nc(NCCN)c3ncc(C)n3c2c1 [BMS-345541, reference compound] | inhibited | suppressed | – | – | –
CN(C)CCCn1cc(C2=C(c3c[nH]c4ccccc34)C(=O)NC2=O)c2ccccc21 [Bisindolylmaleimide I, reference compound] | – | – | also inhibited | – | –
Cc1cc2nc(NCCCO)n(CC(=O)c3cc(C(C)(C)C)c(O)c(C(C)(C)C)c3)c2cc1C [Compound 1, 2-(2-(3-Hydroxypropylamino)-5,6-dimethyl-1H-benzo[d]imidazol-1-yl)-1-(3,5-di-tert-butyl-4-hydroxyphenyl)ethanone] | did not inhibit | did not inhibit | inhibited | not due to cytotoxicity | 53
